Measurements: paper PMC5979531, “Structural Requirements of Alkylglyceryl-L-Ascorbic Acid Derivatives for Melanogenesis Inhibitory Activity” (International Journal of Molecular Sciences, 2018)

What was measured:
B16 melanoma 4A5 cells = experiment: Theophylline-stimulated melanogenesis inhibition (melanin content); assay type: cell-based, murine; conditions: for inhibition at 3 µM / inhibition at 10 µM / inhibition at 30 µM / inhibition at 100 µM / IC50: Mus musculus, 72 h; for inhibition at 3 µM / inhibition at 10 µM / inhibition at 30 µM / inhibition at 100 µM: theophylline-stimulated B16 4A5 cells; for IC50: theophylline (1 mM)-stimulated B16 melanoma 4A5 cells
Method: (§1) The effects on theophylline-stimulated melanogenesis and viability of B16 melanoma 4A5 cells were examined according to previously described protocols. Briefly, murine B16 melanoma 4A5 cells were seeded into 48-well plates in DMEM. After 24 h of culture, a test compound and theophylline (1 mM) were added and incubated for 72 h. The melanin content and cell viability were then measured. IC50 values were determined graphically.
Inhibition (%) was calculated using the following formula, where A and B indicate the optical density of the vehicle- and test compound-treated groups, respectively, and C indicates cell viability (%) (see below): Inhibition (%) = [(A − B)/A]/(C/100) × 100.

[1] = Cell viability of B16 melanoma 4A5 cells; assay type: cell-based, murine; conditions: mouse, B16 4A5 cells
Method: as §1

tyrosinase from mushroom = experiment: Mushroom tyrosinase activity; assay type: biochemical
Method: Tyrosinase activities using L-tyrosine or L-DOPA as a substrate were determined according to the protocols described previously. Briefly, samples, L-tyrosine (2.5 mM, or L-DOPA, 3.0 mM), mushroom tyrosinase (46 units/mL), and phosphate buffer were mixed in a 96-well plate and incubated at 25 °C. (L-tyrosine; 30 min, L-DOPA; 5 min). The absorbance was then measured at 492 nm.

tyrosinase mRNA = experiment: Expression of tyrosinase mRNA (qRT-PCR); assay type: cell-based, murine; conditions: 3 µM, B16 4A5 cells, theophylline 1 mM, 72 h
Method: (§2) The expression of tyrosinase, TRP-1, and TRP-2 mRNA was assessed according to previously reported methods. Briefly, murine B16 melanoma 4A5 cells were seeded into 96-well plates in DMEM. After 24 h of culture, a test compound and theophylline (1 mM) were added and incubated for 72 h. Then, the amount of each mRNA was quantified by quantitative reverse transcription PCR.

TRP-1 mRNA = experiment: Expression of TRP-1 mRNA (qRT-PCR); assay type: cell-based, murine; conditions: B16 4A5 cells, theophylline 1 mM, 72 h
Method: as §2

TRP-2 mRNA = experiment: Expression of TRP-2 mRNA (qRT-PCR); assay type: cell-based, murine; conditions: 3 µM, B16 4A5 cells, theophylline 1 mM, 72 h
Method: as §2

| Structure (SMILES) | IC50 (B16 melanoma 4A5 cells) | Inhibition (%) of mushroom tyrosinase (tyrosinase from mushroom; Substrate: L-DOPA, 10 µM) | Inhibition (%) of mushroom tyrosinase (tyrosinase from mushroom; Substrate: L-DOPA, 30 µM) | Inhibition (%) of mushroom tyrosinase (tyrosinase from mushroom; Substrate: L-Tyrosine, 10 µM) | Inhibition (%) of mushroom tyrosinase (tyrosinase from mushroom; Substrate: L-Tyrosine, 30 µM) | Inhibition (%) of mushroom tyrosinase (tyrosinase from mushroom; Substrate: L-DOPA, 100 µM) | Inhibition (%) of mushroom tyrosinase (tyrosinase from mushroom; Substrate: L-Tyrosine, 100 µM) | inhibition at 3 µM (B16 melanoma 4A5 cells) | inhibition at 10 µM (B16 melanoma 4A5 cells) | inhibition at 30 µM (B16 melanoma 4A5 cells) | inhibition at 100 µM (B16 melanoma 4A5 cells) | viability at 72 h, 3 µM [1] | viability at 72 h, 10 µM [1] | viability at 72 h, 30 µM [1] | viability at 72 h, 100 µM [1] | Tyrosinase mRNA/β-actin mRNA (tyrosinase mRNA) | TRP-1 mRNA/β-actin mRNA (TRP-1 mRNA; 3 µM) | TRP-1 mRNA/β-actin mRNA (TRP-1 mRNA; 10 µM) | TRP-2 mRNA/β-actin mRNA (TRP-2 mRNA) | potency relative to arbutin (melanogenesis inhibition) (B16 melanoma 4A5 cells; ratio of IC50 values vs arbutin) |
| --- | --- | --- | --- | --- | --- | --- | --- | --- | --- | --- | --- | --- | --- | --- | --- | --- | --- | --- | --- | --- |
| CCCCCCCCCCCOC1=C(OCC(O)CO)[C@@H]([C@@H](O)CO)OC1=O (stereo partly drawn) [compound 11, 3-O-(2,3-dihydroxypropyl)-2-O-undecyl-AsA] | 15.1 µM | −4.6 ± 1.4% | −5.1 ± 2.2% | 2.9 ± 3.9% | 1.0 ± 2.5% | – | – | 12.4 ± 3% | 35.4 ± 2.8% | 89.3 ± 1.5% | 100 ± 4.7% | 106% | 90.8% | 69% | 25.8% | – | – | – | – | – |
| CCCCCCCOC1=C(OCC(O)CO)C(=O)O[C@@H]1[C@@H](O)CO (stereo partly drawn) [compound 21, 2-O-(2,3-dihydroxypropyl)-3-O-heptyl-AsA] | > 100 µM | – | −10.0 ± 1.7% | – | −9.2 ± 2.1% | −11.3 ± 2.4% | −9.8 ± 3.9% | -6.3 ± 2.7% | 0.9 ± 8.2% | 21 ± 5% | 44.6 ± 6.2% | 97.9% | 92.7% | 92.7% | 86.3% | – | – | – | – | – |
| CCCCCCCCOC1=C(OCC(O)CO)C(=O)O[C@@H]1[C@@H](O)CO (stereo partly drawn) [compound 22, 2-O-(2,3-dihydroxypropyl)-3-O-octyl-AsA] | > 100 µM | – | −13.1 ± 3.3% | – | −11.5 ± 1.6% | −4.5 ± 2.0% | −14.4 ± 1.8% | -10.4 ± 6% | 1 ± 7% | 2.3 ± 5.9% | 34.8 ± 8.2% | 98.8% | 99.3% | 91.6% | 83% | – | – | – | – | – |
| CCCCCCCCCOC1=C(OCC(O)CO)C(=O)O[C@@H]1[C@@H](O)CO (stereo partly drawn) [compound 23, 2-O-(2,3-dihydroxypropyl)-3-O-nonyl-AsA] | 72.9 µM | – | −4.1 ± 2.2% | – | −5.0 ± 3.1% | −1.5 ± 2.2% | −2.6 ± 2.4% | -1.3 ± 9.4% | -2.6 ± 8% | 14.9 ± 5.6% | 77.1 ± 2.4% | 96.6% | 90.6% | 81.2% | 60.7% | – | – | – | – | – |
| CCCCCCCCCCOC1=C(OCC(O)CO)C(=O)O[C@@H]1[C@@H](O)CO (stereo partly drawn) [compound 24, 3-O-decyl-2-O-(2,3-dihydroxypropyl)-AsA] | 23.5 µM | 0.7 ± 3.8% | −5.3 ± 4.2% | −4.1 ± 5.3% | −3.1 ± 4.1% | – | – | -5.8 ± 6% | 20.9 ± 5.4% | 64.3 ± 3.8% | 103 ± 2.4% | 92.5% | 87.1% | 68.5% | 34.3% | – | – | – | – | – |
| CCCCCCCCCCCOC1=C(OCC(O)CO)C(=O)O[C@@H]1[C@@H](O)CO (stereo partly drawn) [compound 25, 2-O-(2,3-dihydroxypropyl)-3-O-undecyl-AsA] | 18.1 µM | −10.2 ± 2.3% | −10.7 ± 3.8% | −8.0 ± 0.6% | −8.7 ± 1.5% | – | – | -5.1 ± 2.3% | 26.6 ± 3% | 85 ± 3.8% | 101 ± 10.1% | 101% | 85.8% | 53.6% | 24% | – | – | – | – | – |
| CCCCCCCCCCCCOC1=C(OCC(O)CO)C(=O)O[C@@H]1[C@@H](O)CO (stereo partly drawn) [compound 26, 2-O-(2,3-dihydroxypropyl)-3-O-dodecyl-AsA] | 12.1 µM | −6.4 ± 3.1% | −6.6 ± 8.7% | −2.2 ± 6.4% | −0.5 ± 4.3% | – | – | 14.1 ± 8.5% | 46 ± 3% | 96.2 ± 2.8% | 89.6 ± 24.4% | 99.8% | 87.3% | 45.5% | 24.3% | – | – | – | – | – |
| CCCCCCCCCCCCCOC1=C(OCC(O)CO)C(=O)O[C@@H]1[C@@H](O)CO (stereo partly drawn) [compound 27, 2-O-(2,3-dihydroxypropyl)-3-O-tridecyl-AsA] | 11.7 µM | −2.0 ± 3.3% | −3.2 ± 2.7% | −3.3 ± 8.1% | −5.4 ± 1.9% | – | – | 20.1 ± 5.7% | 44.2 ± 3.9% | 96.6 ± 3% | 113 ± 10.1% | 105% | 84.3% | 40.2% | 21% | – | – | – | – | – |

Now those with a lower IC50 (B16 melanoma 4A5 cells), led by results:

| IC50 (B16 melanoma 4A5 cells) | Inhibition (%) of mushroom tyrosinase (tyrosinase from mushroom; Substrate: L-DOPA, 10 µM) | Inhibition (%) of mushroom tyrosinase (tyrosinase from mushroom; Substrate: L-DOPA, 30 µM) | Inhibition (%) of mushroom tyrosinase (tyrosinase from mushroom; Substrate: L-Tyrosine, 10 µM) | Inhibition (%) of mushroom tyrosinase (tyrosinase from mushroom; Substrate: L-Tyrosine, 30 µM) | Inhibition (%) of mushroom tyrosinase (tyrosinase from mushroom; Substrate: L-DOPA, 100 µM) | Inhibition (%) of mushroom tyrosinase (tyrosinase from mushroom; Substrate: L-Tyrosine, 100 µM) | Structure (SMILES) | inhibition at 3 µM (B16 melanoma 4A5 cells) | inhibition at 10 µM (B16 melanoma 4A5 cells) | inhibition at 30 µM (B16 melanoma 4A5 cells) | inhibition at 100 µM (B16 melanoma 4A5 cells) | viability at 72 h, 3 µM [1] | viability at 72 h, 10 µM [1] | viability at 72 h, 30 µM [1] | viability at 72 h, 100 µM [1] | Tyrosinase mRNA/β-actin mRNA (tyrosinase mRNA) | TRP-1 mRNA/β-actin mRNA (TRP-1 mRNA; 3 µM) | TRP-1 mRNA/β-actin mRNA (TRP-1 mRNA; 10 µM) | TRP-2 mRNA/β-actin mRNA (TRP-2 mRNA) | potency relative to arbutin (melanogenesis inhibition) (B16 melanoma 4A5 cells; ratio of IC50 values vs arbutin) |
| --- | --- | --- | --- | --- | --- | --- | --- | --- | --- | --- | --- | --- | --- | --- | --- | --- | --- | --- | --- | --- |
| 10.6 µM | −3.1 ± 3.3% | −4.6 ± 2.2% | −0.7 ± 4.5% | −7.1 ± 1.4% | – | – | CCCCCCCCCCCCOC1=C(OCC(O)CO)[C@@H]([C@@H](O)CO)OC1=O (stereo partly drawn) [compound 12, 3-O-(2,3-dihydroxypropyl)-2-O-dodecyl-AsA] | 20.4 ± 10.2% | 50 ± 5.7% | 96 ± 2.9% | 97.9 ± 4.2% | 112% | 104% | 73.3% | 24.6% | – | – | – | – | – |
| 11.3 µM | −4.7 ± 5.0% | −4.4 ± 1.8% | −4.7 ± 2.9% | −7.1 ± 1.7% | – | – | CCCCCCCCCCCCCOC1=C(OCC(O)CO)[C@@H]([C@@H](O)CO)OC1=O (stereo partly drawn) [compound 13, 3-O-(2,3-dihydroxypropyl)-2-O-tridecyl-AsA] | 0.1 ± 8.6% | 46 ± 7.9% | 97.1 ± 2.3% | 108 ± 9.1% | 96.3% | 87.2% | 63.7% | 23.5% | – | – | – | – | – |
| 11.1 µM | −8.9 ± 3.5% | −8.2 ± 4.3% | −7.0 ± 6.7% | −9.7 ± 2.7% | – | – | CCCCCCCCCCCCCCOC1=C(OCC(O)CO)[C@@H]([C@@H](O)CO)OC1=O (stereo partly drawn) [compound 14, 3-O-(2,3-dihydroxypropyl)-2-O-tetradecyl-AsA] | 6.3 ± 2.6% | 48.4 ± 2.2% | 97.6 ± 1.8% | 100 ± 18.2% | 101% | 89.1% | 56.3% | 21% | 0.78 ± 0.10 | 1.02 ± 0.27 | 0.92 ± 0.22 | 0.58 ± 0.06 | – |
| 5 µM | −5.7 ± 9.5% | −8.1 ± 5.2% | −4.4 ± 4.6% | −8.4 ± 1.0% | – | – | CCCCCCCCCCCCCCOC1=C(OCC(O)CO)C(=O)O[C@@H]1[C@@H](O)CO (stereo partly drawn) [compound 28, 2-O-(2,3-dihydroxypropyl)-3-O-tetradecyl-AsA] | 32.8 ± 7.2% | 75.7 ± 3.9% | 95.9 ± 8.4% | 95.2 ± 20.7% | 85.1% | 62.6% | 23% | 18.1% | 0.54 ± 0.03 | 0.88 ± 0.20 | 0.83 ± 0.27 | 0.43 ± 0.11 | more than 166 fold |
